Measurements as given in the supplement of paper PMC10307832.

Experiments:
Assay in all cases: relative viability (nuclei count vs DMSO), 5 days (fraction); higher = more cells survive
Carboplatin + OSI-027 = compound: C1CC(C1)(C(=O)O)C(=O)O.[NH2-].[NH2-].[Pt+2] [Carboplatin] + COc1cccc2cc(-c3nc([C@H]4CC[C@H](C(=O)O)CC4)n4ncnc(N)c34)[nH]c12 [OSI-027] (partner 0.5 µM)
How it was run: (§1)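 Relative viability was taken as the ratio of nuclei in treated wells to nuclei in vehicle wells. Lung cancer cell lines in 1536-well plates received compounds by pin tool one day after seeding, either one drug alone or a fixed anchor-drug dose plus five library-drug doses (not always all listed) in √10 steps. Nuclei were counted on 4× images after 5 days of treatment, and values are medians of duplicate plates.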

Carboplatin + Phenformin = compound: C1CC(C1)(C(=O)O)C(=O)O.[NH2-].[NH2-].[Pt+2] [Carboplatin] + N=C(N)NC(=N)NCCc1ccccc1 [Phenformin] (partner 250 µM)
How it was run: as §1

GSK126 + Bortezomib = compound: CC[C@H](C)N1C=C(C2=C(C=C(C=C21)C3=CN=C(C=C3)N4CCNCC4)C(=O)NCC5=C(C=C(NC5=O)C)C)C [GSK126] + CC(C)C[C@H](NC(=O)[C@H](Cc1ccccc1)NC(=O)c1cnccn1)B(O)O [Bortezomib] (partner 0.002 µM)
How it was run: as §1

MLN4924 + Bortezomib = compound: NS(=O)(=O)OC[C@@H]1C[C@@H](n2ccc3c(N[C@H]4CCc5ccccc54)ncnc32)C[C@@H]1O [MLN4924] + CC(C)C[C@H](NC(=O)[C@H](Cc1ccccc1)NC(=O)c1cnccn1)B(O)O [Bortezomib] (partner 0.002 µM)
How it was run: as §1

Cell Line	relative viability (Carboplatin + OSI-027; first compound 0.08 µM)	relative viability (Carboplatin + OSI-027; first compound 0.253 µM)	relative viability (Carboplatin + OSI-027; first compound 0.8 µM)	relative viability (Carboplatin + OSI-027; first compound 2.53 µM)	relative viability (Carboplatin + OSI-027; first compound 8 µM)	relative viability (Carboplatin + Phenformin; first compound 0.08 µM)	relative viability (Carboplatin + Phenformin; first compound 0.253 µM)	relative viability (Carboplatin + Phenformin; first compound 0.8 µM)	relative viability (Carboplatin + Phenformin; first compound 2.53 µM)	relative viability (Carboplatin + Phenformin; first compound 8 µM)	relative viability (GSK126 + Bortezomib; first compound 0.08 µM)	relative viability (GSK126 + Bortezomib; first compound 0.253 µM)	relative viability (GSK126 + Bortezomib; first compound 0.8 µM)	relative viability (GSK126 + Bortezomib; first compound 2.53 µM)	relative viability (GSK126 + Bortezomib; first compound 8 µM)	relative viability (MLN4924 + Bortezomib; first compound 0.04 µM)	relative viability (MLN4924 + Bortezomib; first compound 0.1265 µM)	relative viability (MLN4924 + Bortezomib; first compound 0.4 µM)	relative viability (MLN4924 + Bortezomib; first compound 1.265 µM)	relative viability (MLN4924 + Bortezomib; first compound 4 µM)
LU99A	0.307	0.299	0.269	0.3	0.283	0.958	0.854	0.738	0.809	0.647	1.13	1.08	1.19	1.15	1.12	0.873	0.316	0.407	0.159	0.138
LXF-289	0.882	0.871	0.816	0.828	0.716	0.566	0.584	0.519	0.539	0.502	1.04	0.996	1	1.01	1.04	0.928	0.707	0.516	0.269	0.162
NCI-H23	0.843	0.599	0.671	0.575	0.435	0.824	0.753	0.768	0.727	0.714	1.13	0.96	0.922	1.02	0.95	0.94	0.617	0.376	0.165	0.144
NCI-H322M	0.544	0.503	0.599	0.506	0.408	0.884	0.738	0.775	0.74	0.712	1.12	1.26	1.27	1.25	1.26	1.24	1.36	1.2	0.302	0.463
NCI-H441	0.715	0.668	0.767	0.696	0.451	0.769	0.963	1	0.876	0.839	0.445	0.452	0.419	0.507	0.519	0.876	0.29	0.236	0.145	0.191
NCI-H460	0.778	0.708	0.631	0.332	0.0817	0.548	0.507	0.504	0.404	0.122	1.34	1.1	1.06	1.09	1.18	0.998	1.1	1.04	0.203	0.0203
NCI-H520	0.245	0.237	0.317	0.289	0.253	0.677	0.595	0.725	0.585	0.54	0.745	0.709	0.571	0.522	0.754	0.424	0.272	0.341	0.131	0.141
NCI-H596	0.909	0.803	0.781	0.654	0.514	0.871	0.767	0.768	0.638	0.67	1.09	0.982		1.14	0.731	1.08	1.02	0.709	0.885	0.974
NCI-H647	0.724	0.637	0.692	0.57	0.575	0.555	0.66	0.422	0.55	0.452	1.06	0.808	1.03	1.07	0.882	0.583	0.425	0.149	0.0614	0.0695
NCI-H650	0.526	0.514	0.601	0.539	0.356	0.495	0.451	0.398	0.428	0.398	0.812	0.814	0.762	0.804	0.727	0.439	0.456	0.233	0.179	0.202
NCI-H661	0.758	0.824	0.66	0.578	0.478	0.249	0.286	0.259	0.276	0.301	1	0.88	0.808	0.926	0.632	0.872	0.904	0.637	0.29	0.254
NCI-H727	0.732	0.547	0.555	0.617	0.551	0.504	0.652	0.454	0.497	0.365	1.02	0.78	0.899	0.854	0.88	0.624	0.512	0.313	0.267	0.225
NCI-H838	0.468	0.32	0.439	0.364	0.391	0.707	0.587	0.603	0.601	0.603	0.935	0.828	0.662	0.613	0.767	0.807	0.456	0.315	0.0967	0.122
NCI-H1355	0.476	0.375	0.413	0.377	0.415	0.524	0.478	0.465	0.405	0.451	1.27	1.33	1.11	1.17	1.19	1.1	1.23	1.12	0.54	0.178
NCI-H1437	0.935	0.822	0.83	0.749	0.488	0.29	0.303	0.294	0.301	0.299	0.528	0.504	0.442	0.45	0.518	0.437	0.448	0.443	0.148	0.115
NCI-H1563	0.821	0.751	0.773	0.754	0.775	0.691	0.668	0.672	0.7	0.631	0.948	0.924	0.937	0.887	0.834	1.35	1.03	0.617	0.474	0.59

Cell Line	relative viability (Carboplatin + OSI-027; first compound 0.08 µM)	relative viability (Carboplatin + OSI-027; first compound 0.253 µM)	relative viability (Carboplatin + OSI-027; first compound 0.8 µM)	relative viability (Carboplatin + OSI-027; first compound 2.53 µM)	relative viability (Carboplatin + OSI-027; first compound 8 µM)	relative viability (Carboplatin + Phenformin; first compound 0.08 µM)	relative viability (Carboplatin + Phenformin; first compound 0.253 µM)	relative viability (Carboplatin + Phenformin; first compound 0.8 µM)	relative viability (Carboplatin + Phenformin; first compound 2.53 µM)	relative viability (Carboplatin + Phenformin; first compound 8 µM)	relative viability (GSK126 + Bortezomib; first compound 0.08 µM)	relative viability (GSK126 + Bortezomib; first compound 0.253 µM)	relative viability (GSK126 + Bortezomib; first compound 0.8 µM)	relative viability (GSK126 + Bortezomib; first compound 2.53 µM)	relative viability (GSK126 + Bortezomib; first compound 8 µM)	relative viability (MLN4924 + Bortezomib; first compound 0.04 µM)	relative viability (MLN4924 + Bortezomib; first compound 0.1265 µM)	relative viability (MLN4924 + Bortezomib; first compound 0.4 µM)	relative viability (MLN4924 + Bortezomib; first compound 1.265 µM)	relative viability (MLN4924 + Bortezomib; first compound 4 µM)
NCI-H1650	0.736	0.593	0.653	0.574	0.341	0.457	0.5	0.359	0.406	0.349	0.233	0.25	0.185	0.183	0.19	0.226	0.194	0.172	0.182	0.177
NCI-H1651	0.734	0.662	0.706	0.506	0.487	0.386	0.335	0.288	0.272	0.218	1.03	0.949	0.981	1.01	0.996	0.936	0.99	0.966	0.498	0.181
NCI-H1666	0.831	0.818	0.831	0.644	0.566	0.612	0.6	0.531	0.565	0.49	0.826	0.962	0.814	0.808	1.01	0.542	0.491	0.348	0.183	0.27
NCI-H1734	0.707	0.674	0.63	0.528	0.572	0.463	0.479	0.364	0.356	0.364	0.98	0.979	1.02	0.87	0.871	0.817	0.602	0.251	0.134	0.118
NCI-H1755	0.823	0.786	0.712	0.729	0.74	0.65	0.618	0.623	0.604	0.576	0.979	0.978	1.05	0.839	0.922	0.898	0.743	0.443	0.21	0.166
NCI-H1792	0.724	0.691	0.824	0.679	0.566	0.318	0.317	0.192	0.203	0.237	0.973	1.02	0.991	0.91	0.948	0.938	1	1.09	0.663	0.425
NCI-H1915	0.616	0.576	0.673	0.601	0.408	0.376	0.389	0.364	0.353	0.301	1.02	0.964	0.991	0.979	0.998	0.982	0.941	0.815	0.22	0.187
NCI-H1975	0.901	0.823	0.713	0.762	0.754	0.437	0.43	0.437	0.413	0.394	0.509	0.31	0.361	0.392	0.343	0.526	0.452	0.26	0.169	0.149
NCI-H1993	0.463	0.556	0.566	0.51	0.498	0.542	0.498	0.467	0.477	0.499	1.23	1.06	1.11	1.04	0.995	0.856	0.72	0.664	0.383	0.474
NCI-H2009	0.699	0.597	0.61	0.56	0.402	0.519	0.47	0.444	0.433	0.42	1.3	0.951	0.992	1.16	1.09	0.889	0.275	0.27	0.079	0.0747
NCI-H2023	0.481	0.424	0.318	0.198	0.123	0.447	0.413	0.381	0.27	0.145	1.45	1.01	1.19	1.39	1.37	0.927	0.796	0.113	0.0794	0.0811
NCI-H2085	0.719	0.849	0.783	0.64	0.628	0.88	0.741	0.695	0.737	0.775	1.19	0.998	1.12	1.04	1.05	1.09	1.09	1.1	0.76	0.648
NCI-H2087	0.656	0.56	0.536	0.508	0.41	0.493	0.48	0.383	0.424	0.332	1.02	0.668	0.94	0.941	0.907	0.746	0.717	0.468	0.151	0.154
NCI-H2126	0.812	0.654	0.677	0.635	0.595	0.591	0.525	0.537	0.503	0.492	1.09	1.19	1.12	1.08	1.1	1.17	1.16	0.907	0.392	0.348
NCI-H2228	0.685	0.63	0.597	0.64	0.349	0.26	0.342	0.294	0.257	0.282	1.01	0.787	0.763	1.08	1.05		1.03	0.309	0.121	0.166
NCI-H2347	0.42	0.421	0.409	0.423	0.324	0.36	0.382	0.583	0.534	0.324	0.931	0.924	0.917	1.36	0.89	0.79	0.933	0.532	0.392	0.395
